# Experimental data taken from US20230399342A1 (Incyte Corporation, priority 2022, published 2023).
# Columns and labels:
# DGKζ = DGKζ (Homo sapiens (Human), UniProt Q13574); test: In vitro DGKζ inhibition assay (ADP-Glo); type: biochemical; details: His-tagged human recombinant enzyme, 0.4 nM DGK, 30 μM ATP, 20 μM DLG, 90 minute incubation
# Method in brief: (§1)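 His-tagged human DGKα (0.1 nM, 50 μM ATP) or DGKζ (0.4 nM, 30 μM ATP), each with 20 μM DLG, in Tris pH 7.5 buffer with CHAPS, Mg2+, Ca2+.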
# DGKα = DGKα (Homo sapiens (Human), UniProt P23743); test: In vitro DGKα inhibition assay (ADP-Glo); type: biochemical; details: His-tagged human recombinant enzyme, 0.1 nM DGKα, 50 μM ATP, 20 μM DLG, 90 minute incubation
# Chain of DGKα (P23743 whole entry): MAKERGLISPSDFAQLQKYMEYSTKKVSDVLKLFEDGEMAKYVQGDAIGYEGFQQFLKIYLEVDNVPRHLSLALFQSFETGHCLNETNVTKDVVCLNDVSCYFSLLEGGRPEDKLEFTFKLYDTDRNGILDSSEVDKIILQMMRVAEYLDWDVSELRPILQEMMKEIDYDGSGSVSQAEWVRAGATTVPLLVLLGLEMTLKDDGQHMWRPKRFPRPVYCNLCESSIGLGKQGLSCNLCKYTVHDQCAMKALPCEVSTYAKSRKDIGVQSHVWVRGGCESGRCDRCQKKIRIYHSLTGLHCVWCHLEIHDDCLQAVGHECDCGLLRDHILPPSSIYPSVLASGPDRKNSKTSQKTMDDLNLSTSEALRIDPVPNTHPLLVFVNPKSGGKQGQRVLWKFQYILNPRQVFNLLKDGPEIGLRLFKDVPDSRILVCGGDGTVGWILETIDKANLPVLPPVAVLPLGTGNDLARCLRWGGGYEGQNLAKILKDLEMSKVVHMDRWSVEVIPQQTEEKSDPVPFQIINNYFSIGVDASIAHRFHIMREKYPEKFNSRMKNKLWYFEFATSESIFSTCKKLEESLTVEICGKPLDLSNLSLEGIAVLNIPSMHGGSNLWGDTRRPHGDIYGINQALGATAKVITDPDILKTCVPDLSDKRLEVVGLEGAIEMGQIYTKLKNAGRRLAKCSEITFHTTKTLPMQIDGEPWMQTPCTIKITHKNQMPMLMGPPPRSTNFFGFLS
# Method in brief: as §1
# Chain of DGKζ (Q13574 whole entry): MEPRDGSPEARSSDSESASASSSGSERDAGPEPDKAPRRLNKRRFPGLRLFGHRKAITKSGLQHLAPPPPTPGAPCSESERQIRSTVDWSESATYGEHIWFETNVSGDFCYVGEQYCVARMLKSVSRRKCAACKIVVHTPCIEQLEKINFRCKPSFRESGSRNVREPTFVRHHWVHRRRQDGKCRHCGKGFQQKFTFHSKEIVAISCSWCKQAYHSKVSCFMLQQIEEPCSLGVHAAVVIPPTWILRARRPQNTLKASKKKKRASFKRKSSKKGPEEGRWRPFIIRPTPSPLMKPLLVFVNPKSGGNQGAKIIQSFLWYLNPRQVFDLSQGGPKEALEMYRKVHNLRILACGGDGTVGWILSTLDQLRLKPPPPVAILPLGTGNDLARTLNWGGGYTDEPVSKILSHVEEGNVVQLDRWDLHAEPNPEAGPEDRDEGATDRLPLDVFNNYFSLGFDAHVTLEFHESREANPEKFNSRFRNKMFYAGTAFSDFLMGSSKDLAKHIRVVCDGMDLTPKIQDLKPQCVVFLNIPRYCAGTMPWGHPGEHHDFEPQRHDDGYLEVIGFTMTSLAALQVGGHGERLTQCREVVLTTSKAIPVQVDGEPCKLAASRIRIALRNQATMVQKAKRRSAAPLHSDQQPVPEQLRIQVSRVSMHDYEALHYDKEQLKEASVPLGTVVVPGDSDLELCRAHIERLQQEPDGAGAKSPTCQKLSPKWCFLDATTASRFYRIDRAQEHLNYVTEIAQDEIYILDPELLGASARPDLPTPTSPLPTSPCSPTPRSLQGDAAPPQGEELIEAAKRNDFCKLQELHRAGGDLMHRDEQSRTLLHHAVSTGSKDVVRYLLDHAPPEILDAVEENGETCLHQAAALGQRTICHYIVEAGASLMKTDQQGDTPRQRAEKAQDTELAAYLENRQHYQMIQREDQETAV
Compound,IC50 (DGKζ),IC50 (DGKα)
"Cc1nc2c(N3C[C@@H](C)N([C@@H](c4ccc(C(F)(F)F)cc4)C(C)C)C[C@@H]3C)nc3nncn3c2n1C[C@@H]1CCCO1 [Example 68, 4-((2S,5R)-2,5-dimethyl-4-((R)-2-methyl-1-(4-(trifluoromethyl)phenyl)propyl)piperazin-1-yl)-2-methyl-1-(((S)-tetrahydrofuran-2-yl)methyl)-1H-[1,2,4]triazolo[3,4-b]purine]",≤ 20 nM,≤ 20 nM
"CC[C@@H]1CN(c2nc3nncn3c3c2nnn3C[C@H]2CCCO2)[C@@H](C)CN1C(c1ccc(F)cc1)c1ccc(F)cc1 [Example 32, 4-((2S,5R)-4-(Bis(4-fluorophenyl)methyl)-5-ethyl-2-methylpiperazin-1-yl)-1-(((R)-tetrahydrofuran-2-yl)methyl)-1H-[1,2,3]triazolo[4,5-e][1,2,4]triazolo[4,3-a]pyrimidine]",≤ 20 nM,≤ 20 nM
"Cc1nc2c(N3C[C@@H](C)N([C@H](c4ccc(F)c(Cl)c4)C(C)C)C[C@@H]3C)nc3nncn3c2n1C[C@@H]1CCCO1 [Example 86, 4-((2S,5R)-4-((S)-1-(3-Chloro-4-fluorophenyl)-2-methylpropyl)-2,5-dimethylpiperazin-1-yl)-2-methyl-1-(((S)-tetrahydrofuran-2-yl)methyl)-1H-[1,2,4]triazolo[3,4-b]purine]",≤ 20 nM,≤ 20 nM
"Cc1nc2c(N3C[C@@H](C)N(C(c4ccc(F)c(Cl)c4)C4CC(F)(F)C4)C[C@@H]3C)nc3nncn3c2n1C[C@@H]1CCCO1 (single isomer, unassigned) [Example 44]",≤ 20 nM,≤ 20 nM
"C[C@@H]1CN(c2nc3nncn3c3c2nnn3C[C@H]2CCCO2)[C@@H](C)CN1C(c1ccc(F)cc1)c1ccc(F)cc1 [Example 29, 4-((2S,5R)-4-(Bis(4-fluorophenyl)methyl)-2,5-dimethylpiperazin-1-yl)-1-(((R)-tetrahydrofuran-2-yl)methyl)-1H-[1,2,3]triazolo[4,5-e][1,2,4]triazolo[4,3-a]pyrimidine]",≤ 20 nM,≤ 20 nM
"Cc1nc2c(N3C[C@@H](C)N([C@@H](c4ccc(F)c(Cl)c4)C(C)C)C[C@@H]3C)nc3nncn3c2n1C[C@@H]1CCCO1 (single isomer, unassigned) [Example 87]",≤ 20 nM,≤ 20 nM
"CC(C)[C@H](c1ccc(F)cc1)N1C[C@H](C)N(c2nc3nncn3c3c2ncn3CC2CC2)C[C@H]1C [Example 23, 1-(cyclopropylmethyl)-4-((2S,5R)-4-((R)-1-(4-fluorophenyl)-2-methylpropyl)-2,5-dimethylpiperazin-1-yl)-1H-[1,2,4]triazolo[3,4-b]purine]",≤ 20 nM,≤ 20 nM
"C[C@@H]1CN(c2nc3nncn3c3c2ncn3CC2CC2)[C@@H](C)CN1C(c1ccc(F)cc1)c1ccc(F)cc1 [Example 18, 4-((2S,5R)-4-(Bis(4-fluorophenyl)methyl)-2,5-dimethylpiperazin-1-yl)-1-(cyclopropylmethyl)-1H-[1,2,4]triazolo[3,4-b]purine]",≤ 20 nM,≤ 20 nM
"Cc1nc2c(N3C[C@@H](C)N([C@H](c4ccc(C(F)(F)F)cc4)C(C)C)C[C@@H]3C)nc3nncn3c2n1C[C@@H]1CCCO1 [Example 67, 4-((2S,5R)-2,5-Dimethyl-4-((S)-2-methyl-1-(4-(trifluoromethyl)phenyl)propyl)piperazin-1-yl)-2-methyl-1-(((S)-tetrahydrofuran-2-yl)methyl)-1H-[1,2,4]triazolo[3,4-b]purine]",≤ 20 nM,≤ 20 nM
"Cc1nc2c(N3C[C@@H](CO)N(C(c4ccc(Cl)cc4)c4ccc(Cl)cc4)C[C@@H]3C)nc3nncn3c2n1C[C@@H]1CCCO1 [Example 137, ((2S,5S)-1-(Bis(4-chlorophenyl)methyl)-5-methyl-4-(2-methyl-1-(((S)-tetrahydrofuran-2-yl)methyl)-1H-[1,2,4]triazolo[3,4-b]purin-4-yl)piperazin-2-yl)methanol]",≤ 20 nM,≤ 20 nM
"C[C@@H]1CN(c2nc3nncn3c3c2ncn3CCN(C)C)[C@@H](C)CN1C(c1ccc(Br)cc1)C1CC(F)(F)C1 (stereo partly drawn) [Example 65, 2-(4-((2S,5R)-4-((4-Bromophenyl)(3,3-difluorocyclobutyl)methyl)-2,5-dimethylpiperazin-1-yl)-1H-[1,2,4]triazolo[3,4-b]purin-1-yl)-N,N-dimethylethan-1-amine]",≤ 20 nM,≤ 20 nM
"Cc1nc2c(N3C[C@@H](C)N(C(c4ccc(C(F)(F)F)c(Cl)c4)C(C)C)C[C@@H]3C)nc3nncn3c2n1C[C@@H]1CCCO1 (stereo partly drawn) [Example 85, 4-((2S,5R)-4-(1-(3-Chloro-4-(trifluoromethyl)phenyl)-2-methylpropyl)-2,5-dimethylpiperazin-1-yl)-2-methyl-1-(((S)-tetrahydrofuran-2-yl)methyl)-1H-[1,2,4]triazolo[3,4-b]purine]",≤ 20 nM,≤ 20 nM
"N#CCC[C@@H]1CN(c2nc3nncn3c3scnc23)CCN1C(c1ccc(F)cc1)c1ccc(F)cc1 [Example 17, (R)-3-(1-(Bis(4-fluorophenyl)methyl)-4-(thiazolo[4,5-e][1,2,4]triazolo[4,3-a]pyrimidin-4-yl)piperazin-2-yl)propanenitrile]",20 to 200 nM,≤ 20 nM
"CC[C@@H]1CN(c2nc3nncn3c3c2nc(C)n3C[C@@H]2CCCO2)[C@@H](C)CN1C(CO)(c1ccc(F)cc1)c1ccc(F)cc1 [Example 125, 2-((2R,5S)-2-Ethyl-5-methyl-4-(2-methyl-1-(((S)-tetrahydrofuran-2-yl)methyl)-1H-[1,2,4]triazolo[3,4-b]purin-4-yl)piperazin-1-yl)-2,2-bis(4-fluorophenyl)ethan-1-01]",≤ 20 nM,≤ 20 nM
"Cc1nc2c(N3C[C@@H](C)N([C@@H](c4cccc(Cl)c4)C(C)C)C[C@@H]3C)nc3nncn3c2n1C[C@@H]1CCCO1 [Example 97, 4-((2S,5R)-4-((R)-1-(3-chlorophenyl)-2-methylpropyl)-2,5-dimethylpiperazin-1-yl)-2-methyl-1-(((S)-tetrahydrofuran-2-yl)methyl)-1H-[1,2,4]triazolo[3,4-b]purine]",≤ 20 nM,≤ 20 nM
"CC[C@H]1CN(C(c2ccc(F)cc2)c2ccc(F)cc2)[C@H](CC)CN1c1nc2nncn2c2c1nnn2C[C@@H]1CCCO1 [Example 31, 4-((2S,5R)-4-(Bis(4-fluorophenyl)methyl)-2,5-diethylpiperazin-1-yl)-1-(((S)-tetrahydrofuran-2-yl)methyl)-1H-[1,2,3]triazolo[4,5-e][1,2,4]triazolo[4,3-a]pyrimidine]",≤ 20 nM,≤ 20 nM
"Cc1nc2c(N3C[C@@H](C)N(C(c4ccc(C(F)F)c(F)c4)C4CC(F)(F)C4)C[C@@H]3C)nc3nncn3c2n1C[C@@H]1CCCO1 (stereo partly drawn) [Example 135, 4-((2S,5R)-4-((3,3-Difluorocyclobutyl)(4-(difluoromethyl)-3-fluorophenyl)methyl)-2,5-dimethylpiperazin-1-yl)-2-methyl-1-(((S)-tetrahydrofuran-2-yl)methyl)-1H-[1,2,4]triazolo[3,4-b]purine]",≤ 20 nM,≤ 20 nM
